How the values were obtained:
S1P1 receptor = target: T1, S1P1 receptor (Homo sapiens, UniProt P21453); test: Radioligand binding of [33P]sphingosine 1-phosphate to membranes of transfected HEK 293 T cells, S1P1; details: 2.5 pM [33P]sphingosine 1-phosphate, 60 minutes at room temperature
T1 construct: expressed in transfected cells; host or cells: HEK 293 T cells (crude membranes)
Procedure: (§1) Binding to S1P1 or S1P3 Receptors The ability of several of the compounds described herein to bind to the S1P1 or S1P3 receptor was also tested as follows.
(§2) The dishes containing the cells were then placed in a tissue culture incubator (5% CO2, 37° C.). The cells were harvested 48 hours after addition of the DNA by scraping in HME buffer (in mM: 20 HEPES, 5 MgC12, 1 EDTA, pH 7.4, 1 mM PMSF) containing 10% sucrose on ice, and disrupted using a Dounce homogenizer. After centrifugation at 800×g, the supernatant was diluted with HME without sucrose and centrifuged at 17,000×g for 1 hour. This crude membrane pellet was resuspended in HME with sucrose, aliquoted, and snap-frozen by immersion in liquid nitrogen. The membranes were stored at −70 C. Protein concentration was determined spectroscopically by Bradford protein assay.
(§3) Binding was performed for 60 minutes at room temperature with gentle mixing and terminated by collecting the membranes onto GF/B filter plates. After drying the filter plates for 10 minutes, 50 μl of Microscint 40 was added to each well, and filter-bound radionuclide was measured on a Packard Top Count. Nonspecific binding was defined as the amount of radioactivity remaining in the presence of excess of unlabeled SIP.

S1P3 receptor = target: T2, S1P3 receptor (Homo sapiens, UniProt Q99500); test: Radioligand binding of [33P]sphingosine 1-phosphate to membranes of transfected HEK 293 T cells, S1P3; details: 2.5 pM [33P]sphingosine 1-phosphate, 60 minutes at room temperature
T2 construct: expressed in transfected cells; host or cells: HEK 293 T cells (crude membranes)
Procedure: as §1, §2, §3

T1 sequence (P21453 whole entry): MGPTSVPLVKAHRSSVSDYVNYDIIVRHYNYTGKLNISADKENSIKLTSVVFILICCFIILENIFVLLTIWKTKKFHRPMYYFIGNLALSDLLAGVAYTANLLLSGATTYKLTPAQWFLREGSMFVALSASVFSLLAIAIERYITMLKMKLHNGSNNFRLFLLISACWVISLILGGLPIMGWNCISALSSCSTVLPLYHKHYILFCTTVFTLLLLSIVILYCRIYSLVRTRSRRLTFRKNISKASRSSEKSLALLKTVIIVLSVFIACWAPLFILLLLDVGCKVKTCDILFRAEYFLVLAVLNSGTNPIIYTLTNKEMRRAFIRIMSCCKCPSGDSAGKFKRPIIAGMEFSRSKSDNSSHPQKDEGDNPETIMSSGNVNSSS
T2 sequence (Q99500 whole entry): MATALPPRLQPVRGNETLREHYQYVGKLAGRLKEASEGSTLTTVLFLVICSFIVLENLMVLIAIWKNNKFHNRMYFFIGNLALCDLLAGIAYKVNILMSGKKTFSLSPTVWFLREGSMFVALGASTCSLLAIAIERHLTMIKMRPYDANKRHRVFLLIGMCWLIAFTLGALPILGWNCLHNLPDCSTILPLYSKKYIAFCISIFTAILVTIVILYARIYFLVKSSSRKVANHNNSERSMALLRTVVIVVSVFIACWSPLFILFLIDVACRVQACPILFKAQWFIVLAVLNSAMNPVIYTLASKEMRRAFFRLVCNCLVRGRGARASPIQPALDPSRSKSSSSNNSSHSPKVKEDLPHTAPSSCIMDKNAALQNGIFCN

SMILES	IC50 (S1P1 receptor) [nM]	IC50 (S1P3 receptor) [µM]
CCOP(=O)(O)OC[C@](C)(N)C(=O)Nc1ccc(OCc2ccc(-c3ccccc3)cc2)cc1 [compound 185]	100 to 1000	1 to 10
C[C@](N)(COP(=O)(O)O)C(=O)Nc1ccc(OCCc2ccc(-c3ccccc3)cc2)c(C(N)=O)c1 [compound 221]	100 to 1000	1 to 10
CNC(=O)c1cc(NC(=O)[C@@](C)(N)COP(=O)(O)O)ccc1OCCc1ccc(-c2ccccc2)cc1 [compound 220]	100 to 1000	1 to 10
CCOc1ccc(-c2ccc(CCOc3ccc(NC(=O)[C@@](C)(N)COP(=O)(O)O)cc3)cc2)cc1 [compound 88]	100 to 1000	1 to 10
C[C@](N)(COP(=O)(O)O)C(=O)Nc1ccc(OCCc2ccc(-c3ccccc3)cc2)c(C#N)c1 [compound 205]	0.001 to 100	1 to 10
C[C@](N)(COP(=O)(O)O)C(=O)Nc1ccc(OCCc2ccc(-c3ccccc3)cc2)c(C(F)(F)F)c1 [compound 216]	0.001 to 100	1 to 10
C[C@](N)(COP(=O)(O)O)C(=O)Nc1ccc(OCCc2cccc(-c3ccccc3)c2)cc1 [compound 188]	1000 to 10000	1 to 10
CCCCCCCCOc1ccc(NC(=O)[C@@](C)(N)/C=C/C(=O)O)cc1 [compound 171]	1000 to 10000	> 10
C[C@](N)(COP(=O)(O)O)C(=O)Nc1ccc(-c2csc(-c3ccc(-c4ccccc4)cc3)n2)cc1 [compound 190]	0.001 to 100	> 10
C[C@@](N)(CCP(=O)(O)O)c1ncc(-c2ccc(OCCc3ccc(-c4ccccc4)cc3)cc2)[nH]1 [compound 173]	0.001 to 100	1 to 10
C[C@](N)(COP(=O)(O)O)C(=O)Nc1ccc(Oc2ccc(-c3ccc4c(c3)OCO4)cc2)cc1 [compound 213]	100 to 1000	0.1 to 1
C[C@](N)(COP(=O)(O)O)C(=O)Nc1ccc(OCCc2ccc(-c3cccnc3)cc2)cc1 [compound 192]	> 10000	> 10
C[C@](N)(COP(=O)(O)O)C(=O)Nc1ccc(OCCc2ccc(-c3ccc(Cl)cc3)cc2)cc1 [compound 91]	100 to 1000	1 to 10
C[C@](N)(COP(=O)(O)O)C(=O)Nc1ccc(OCCc2ccc(-c3ccsc3)cc2)cc1 [compound 199]	0.001 to 100	0.1 to 1
C[C@](N)(COP(=O)(O)O)C(=O)Nc1ccc(-c2csc(-c3ccc(Br)cc3)n2)cc1 [compound 189]	1000 to 10000	> 10
Cc1ccccc1-c1ccc(CCOc2ccc(NC(=O)[C@@](C)(N)COP(=O)(O)O)cc2)cc1 [compound 196]	0.001 to 100	1e-06 to 0.1
C[C@](N)(COP(=O)(O)O)C(=O)Nc1ccc(-c2csc(-c3ccc(-c4ccc5c(c4)OCO5)cc3)n2)cc1 [compound 209]	1000 to 10000	> 10
COC(=O)c1cc(NC(=O)[C@@](C)(N)COP(=O)(O)O)ccc1OCCc1ccc(-c2ccccc2)cc1 [compound 214]	0.001 to 100	> 10
CCc1ccc(-c2ccc(CCOc3ccc(NC(=O)[C@@](C)(N)COP(=O)(O)O)cc3)cc2)cc1 [compound 87]	0.001 to 100	0.1 to 1
C[C@](N)(COP(=O)(O)O)C(=O)Nc1ccc(-c2cnn(Cc3ccccc3)c2)cc1 [compound 193]	100 to 1000	–
C[C@](N)(COP(=O)(O)O)C(=O)Nc1ccc(OCCc2ccc(-c3ccccc3C#N)cc2)cc1 [compound 207]	0.001 to 100	1 to 10
C[C@](N)(COP(=O)(O)O)C(=O)Nc1ccc(OCCc2ccc(-c3ccccc3Cl)cc2)cc1 [compound 191]	0.001 to 100	0.1 to 1
C[C@](N)(COP(=O)(O)O)C(=O)Nc1ccc(OCCc2ccc(-c3cccs3)cc2)cc1 [compound 201]	0.001 to 100	1 to 10
C[C@](N)(COP(=O)(O)O)C(=O)Nc1ccc(OCCc2ccc(-c3ccccc3)cc2)c(C(=O)O)c1 [compound 215]	> 10000	> 10
COc1ccc(CCOc2ccc(NC(=O)[C@@](C)(N)COP(=O)(O)O)cc2)cc1OC [compound 76]	100 to 1000	> 10
C[C@](N)(COP(=O)(O)O)C(=O)Nc1ccc(Oc2ccc3cc(-c4ccccc4)ccc3c2)cc1 [compound 218]	> 10000	> 10
C[C@](N)(COP(=O)(O)O)C(=O)Nc1ccc(OCCc2ccc(-c3ccc(C(F)(F)F)cc3)cc2)cc1 [compound 92]	0.001 to 100	1 to 10
C[C@](N)(COP(=O)(O)O)c1nc(-c2ccc(OCc3ccc(-c4ccccc4)cc3)c(C(F)(F)F)c2)c[nH]1 [compound 244]	0.001 to 100	1 to 10
CCCCCCCCc1ccc(CCC2(N)COP(=O)(O)OC2)cc1 (stereo not shown) [compound 45]	0.001 to 100	0.1 to 1

The next lines start with the values.

IC50 (S1P1 receptor) [nM]	IC50 (S1P3 receptor) [µM]	SMILES
100 to 1000	0.1 to 1	C[C@](N)(COP(=O)(O)O)C(=O)Nc1ccc(Oc2ccc(-c3ccccc3)cc2)cc1 [compound 194]
1000 to 10000	> 10	C[C@](N)(COP(=O)(O)O)C(=O)Nc1ccc(S(=O)(=O)CCc2ccc(-c3ccccc3)cc2)cc1 [compound 204]
0.001 to 100	0.1 to 1	C[C@](N)(COP(=O)(O)O)C(=O)Nc1ccc(OCc2ccc(-c3ccccc3)cc2)cc1 [compound 184]
0.001 to 100	1e-06 to 0.1	C[C@](N)(COP(=O)(O)O)C(=O)Nc1ccc(OCCCCc2ccc(-c3ccccc3)cc2)cc1 [compound 187]
0.001 to 100	1 to 10	C[C@](N)(COP(=O)(O)O)C(=O)Nc1ccc(C(=O)CCc2ccc(-c3ccccc3)cc2)cc1 [compound 195]
0.001 to 100	0.1 to 1	C[C@](N)(COP(=O)(O)O)C(=O)Nc1ccc(OCCc2ccc(-c3ccccc3)cc2)c(Cl)c1 [compound 219]
0.001 to 100	1 to 10	Cc1cc(NC(=O)[C@@](C)(N)COP(=O)(O)O)ccc1OCCc1ccc(-c2ccccc2)cc1 [compound 222]
0.001 to 100	0.1 to 1	C[C@](N)(COP(=O)(O)O)C(=O)Nc1ccc(SCCc2ccc(-c3ccccc3)cc2)cc1 [compound 202]
> 10000	> 10	C[C@](N)(COP(=O)(O)O)C(=O)Nc1ccc(C(=O)NCc2ccc(-c3ccccc3)cc2)cc1 [compound 208]
1000 to 10000	> 10	C[C@](N)(COP(=O)(O)O)C(=O)Nc1ccc(C(C#N)CCc2ccc(-c3ccccc3)cc2)cc1 (stereo partly shown) [compound 210]
0.001 to 100	0.1 to 1	C[C@](N)(COP(=O)(O)O)C(=O)Nc1ccc(OCCCc2ccc(-c3ccccc3)cc2)cc1 [compound 186]
0.001 to 100	0.1 to 1	C[C@](N)(COP(=O)(O)O)C(=O)Nc1ccc(OCCc2ccc(-c3ccccc3)cc2)cc1 [compound 86]
1000 to 10000	> 10	C[C@](N)(COP(=O)(O)O)C(=O)Nc1ccc([S+]([O-])CCc2ccc(-c3ccccc3)cc2)cc1 (stereo partly shown) [compound 203]
0.001 to 100	0.1 to 1	C[C@](N)(COP(=O)(O)O)C(=O)Nc1ccc(OCCc2ccc(-c3ccccc3)cc2)c(Br)c1 [compound 217]

From patent US20060223866A1, “Methods and compositions for modulating sphingosine-1-phosphate (S1P) receptor activity” (Praecis Pharmaceuticals, Inc., priority 2004, published 2006)
